Earlier results on one compound are cited in patent US6485736B1, “Variable release microcapsules” (priority 2000, dated 2002).

For the data set the following is noted: water at 25° C.

For `II`, the solubility was 0.335 g in 1 dm^3 of water.
